According to patent US12421226B2, “Heteroaryl compounds as necrosis inhibitors, composition and method using the same” (Accro Bioscience (HK), priority 2019, dated 2025):

How the values were obtained:
HT29 cells = assay: Necroptosis inhibition in HT29 cell assay (TNF-α/Smac mimetic/z-VAD induced, cell viability); type: cell-based; conditions: then TNF-α 40 ng/mL + Smac mimetic 100 nM + z-VAD 20 μM for 48 hours
Method: 1. Compounds Tested for Necroptosis Inhibition Activities in HT29 Cell Assay
(§1) For this assay, HT29 cells were added to 96-well plates and then were pre-treated with 10 μM of the test compound for one hour. Then the cells were treated with tumor necrosis factor alpha (TNF-α, 40 ng/mL), Smacmimetic (cIAP inhibitor) (100 nM) and z-VAD (capase inhibitor, from calbiochem) (20 μM) for 48 hours, and the viability of cells was quantified. DMSO pretreatment group was used as negative controls, Nec-1 (known necroptosis inhibitor, from Biomol) pretreatment group was used as positive controls.

[1] = system: L929 mouse skin fibroblast cells; assay: Necroptosis inhibition in L929 cell assay (TNF-α/z-VAD induced, cell viability by ATP levels); type: cell-based; conditions: 1 h pre-treatment with compound, then TNF-α 40 ng/mL + z-VAD 20 μM for 48 hours
Method: 2. Compounds Tested for Necroptosis Inhibition Activities in L929 Cell Assay
as §1, with “Mouse L929 mouse skin fibroblast” for “For this assay, HT29”, “TNF-α (40 ng/mL, lab-made)” for “tumor necrosis factor alpha (TNF-α, 40 ng/mL), Smacmimetic (cIAP inhibitor) (100 nM)”, “quantified by detecting adenosine triphosphate (ATP) levels.” for “quantified.”

[2] = Homo sapiens, HT-29, 1 h pre-treatment with compound

Structure (SMILES) | IC50 (HT29 cells; [2]) | IC50 ([1]; Mus musculus) | IC50 (HT29 cells; 1 h pre-treatment with compound) | IC50 [1]
O=C(Nc1cn2cc(-c3cnc4ccn(C(=O)OC5CCOCC5)c4c3)ccc2n1)C1CC1 [Compound C6, tetrahydropyran-4-yl 6-[2-(cyclopropanecarbonylamino)imidazo-[1,2-a]pyridin-6-yl]pyrrolo[3,2-b]pyridine-1-carboxylate] | 56 nM | 50 nM |  | 
O=C(Nc1nc2ccc(-c3cnc4ccn(C(=O)CC5CCOCC5)c4c3)cc2s1)C1CC1 [Compound C8, N-[6-[1-(2-tetrahydropyran-4-ylacetyl)pyrrolo[3,2-b]pyridin-6-yl]-1,3-benzothiazol-2-yl]cyclopropanecarboxamide] | 440 nM | 17 nM |  | 
O=C(NC1CCOCC1)c1csc2ncc(-c3ccc4nc(NC(=O)C5CC5)sc4c3)cc12 [Compound C12, 5-[2-(cyclopropanecarbonylamino)-1,3-benzothiazol-6-yl]-N-tetrahydropyran-4-yl-thieno[2,3-b]pyridine-3-carboxamide] | 7.3 nM | 1.5 nM |  | 
O=C(NC1CCOCC1)c1nsc2ncc(-c3ccc4nc(NC(=O)C5CC5)sc4c3)cc12 [Compound C14, 5-[2-(cyclopropanecarbonylamino)-1,3-benzothiazol-6-yl]-N-tetrahydropyran-4-yl-isothiazolo[5,4-b]pyridine-3-carboxamide] | 4.7 nM | 1.3 nM |  | 
O=C(NC1CCCCC1)c1csc2ncc(-c3ccc4nc(NC(=O)C5CC5)sc4c3)cc12 [Compound C18, N-cyclohexyl-5-[2-(cyclopropanecarbonylamino)-1,3-benzothiazol-6-yl]thieno[2,3-b]pyridine-3-carboxamide] | 1 nM | 0.3 nM |  | 
CNC(=O)Nc1nc2ccc(-c3cnc4scc(C(=O)NC5CCCCC5)c4c3)cc2s1 [Compound C20, N-cyclohexyl-5-[2-(methylcarbamoylamino)-1,3-benzothiazol-6-yl]thieno[2,3-b]pyridine-3-carboxamide] | 1.6 nM | 0.6 nM |  | 
O=C(NC1CCCCC1)c1nsc2ncc(-c3ccc4nc(NC(=O)C5CC5)sc4c3)cc12 [Compound C23, N-cyclohexyl-5-[2-(cyclopropanecarbonylamino)-1,3-benzothiazol-6-yl]isothiazolo[5,4-b]pyridine-3-carboxamide] | 5.3 nM | 1.7 nM |  | 
O=C(NC1CCC(F)(F)CC1)c1nsc2ncc(-c3ccc4nc(NC(=O)C5CC5)sc4c3)cc12 [Compound C30, 5-[2-(cyclopropanecarbonylamino)-1,3-benzothiazol-6-yl]-N-(4,4-difluorocyclohexyl)isothiazolo[5,4-b]pyridine-3-carboxamide] | 10 nM | 0.8 nM |  | 
O=C(Nc1nc2ccc(-c3cnc4ccn(C(=O)NC5CCCCC5)c4c3)cc2s1)C1CC1 [Compound C33, N-cyclohexyl-6-[2-(cyclopropanecarbonylamino)-1,3-benzothiazol-6-yl]pyrrolo[3,2-b]pyridine-1-carboxamide] | 4.6 nM | 0.3 nM |  | 
CN1CCC(NC(=O)c2nsc3ncc(-c4ccc5nc(NC(=O)C6CC6)sc5c4)cc23)CC1 [Compound C42, 5-(2-(cyclopropanecarboxamido)benzo[d]thiazol-6-yl)-N-(1-methylpiperidin-4-yl)isothiazolo[5,4-b]pyridine-3-carboxamide] | 3000 nM | 321 nM |  | 
CN1C(=O)C(Cc2c[nH]c3ccccc23)NC1=S (stereo not shown) [Nec-1, reference compound] |  |  | 300 nM | 1250 nM
